In patent publication US6696440B1, “Treatment of asthma with MEK inhibitors” (Warner-Lambert Company, priority 1999, dated 2004):
Marks after values point to notes of the source that are not given here.

Key:
[1] = tested on: OVA-primed splenocytes; assay: Inhibition of antigen-induced IL-5 production by OVA-primed splenocytes in vitro; assay type: cell-based, mice; conditions: Mus musculus, Splenocyte, 72 h; OVA-sensitized splenocytes cultured 3 days with 200 μg/mL OVA; IL-5 by ELISA
Experimental: (§1) For each of these assays, female C57BL/6 mice obtained from the Jackson Laboratory (Bar Harbor, Me.) were given an intraperitoneal (i.p.) injection of ovalbumin (OVA, Grade V, Sigma Chemical Company, St. Louis, Mo.) adsorbed to aluminum hydroxide (10 μg OVA+9 mg aluminum hydroxide in 200 μL saline). This sensitizes OVA-specific lymphocytes for subsequent restimulation either in vivo or in vitro.
The first set of experiments was designed to determine whether the MEK inhibitors could prevent antigen-induced production of IL-5 by the OVA-primed splenocytes in vitro. IL-5 is required for the differentiation, migration, and survival of pulmonary eosinophils, which are thought to be responsible for much of the pathology associated with human asthma. In order to examine the effects of MEK inhibitors on IL-5 production, OVA-sensitized mice were sacrificed by cervical dislocation 14 days after sensitization (Day 14), the spleens were excised and disaggregated, and the erythrocytes were lysed. The splenocytes were washed and resuspended at […] in complete medium consisting of RPMI 1640 (Gibco BRL, Gaithersburg, Md.) with 10% heat-inactivated fetal calf serum (Hyclone, Logan, Utah), 55 μM 2-mercaptoethanol, 50 U/mL penicillin G, 50 μg/mL streptomycin sulfate, and 2 mM L-glutamine (Gibco BRL). The splenocytes were then cultured at 37° C. in the presence of 200 μg/mL OVA. MEK inhibitors were also added to the cultures from sterile 10 mM stock solutions (in DMSO). After 3 days, the culture medium was recovered and assayed for IL-5 by specific ELISA.

[2] = tested on: BAL eosinophils; assay: Adoptive (passive) transfer of eosinophilic lung inflammation by MEK inhibitor-treated splenocytes; assay type: in vivo; conditions: spleen cell culture treated with 10 μM compound; cells transferred to naive mice; OVA aerosol challenge
Experimental: as §1
When OVA-sensitized spleen cells are restimulated with OVA in vitro for 3 days, as described above, the spleen cells not only produce IL-5, but also acquire the ability to induce eosinophilic lung inflammation when transferred into naive recipient mice. The critical cell type responsible for this adoptively-transferred activity is thought to be IL-5-producing T lymphocytes. […] Splenocytes from OVA restimulation cultures, with or without the addition of MEK inhibitors were harvested after 3 days of culture, washed three times, and resuspended at 1×10^8 cells/mL in sterile saline. Groups of five naive (unsensitized) […] mice were injected i.p. with 200 μL of the cell suspension (2×10^7 cells). Three days after transfer of cells, the recipient mice were challenged with a 12-minute inhalation of an aerosol formulation of 1.5% OVA in saline (weight/volume), the mist being produced by a nebulizer (small particle generator model SPAG-2, ICN Pharmaceuticals, Costa Mesa, Calif.). Three days after aerosol challenge, the mice were anesthetized with an i.p. injection of an anesthetic mixture comprising Ketamine, acepromazine, and xylazine. The trachea of each mouse was exposed and cannulated. The lungs and upper airways were lavaged with 0.5 mL of cold (5° C.) phosphate buffered saline (PBS). The cells within a 200 μL portion of the bronchoalveolar lavage (BAL) fluid were enumerated using a Coulter counter (Model ZB 1, Coulter Electronics, Hialeah, Fla.). […] The number of eosinophils in the BAL fluid was determined by multiplying the percentage of eosinophils by the total cell count.

[3] = tested on: BAL eosinophils; assay: Active OVA-induced eosinophilic lung inflammation in mice, oral dosing; assay type: in vivo; conditions: for % Inhibition of BAL Eosinophils / % Inhibition of BAL Eosinophilia: oral; for % Inhibition of BAL Eosinophilia: 4 days (Day 13 to Day 16); for activity against BAL eosinophils (in words): multiple doses, dosing for 4 days (Table 4); for inhibitory activity against BAL eosinophils (in words): oral dosing schedule of 9 days (Table 5)
Experimental: as §1
The final set of experiments was designed to test whether MEK inhibitors could inhibit active OVA-induced eosinophilic lung inflammation in mice. Mice were sensitized with OVA/aluminum hydroxide on Day 0 as described above. On Day 14, the mice were challenged by aerosol with 1.5% OVA, as described above for the adoptive-transfer recipients. One group of eight sensitized mice was dosed orally with vehicle (0.5% hydroxypropylmethylcellulose/0.25% TWEEN-80). Other groups of sensitized mice (8 mice per group) were given oral doses of a MEK inhibitor. The test compound was dissolved in the vehicle, and the volume for each dosage was adjusted to 200 μL, so that each test animal received the same oral volume. In experiments reported in Table 3 and Table 4, the MEK inhibitor was administered starting on Day 13 (ie, 13 days after initial sensitization and 1 day prior to aerosol challenge), and continued daily through Day 16 (4 days total). In experiments reported in Table 5, the MEK inhibitor was administered starting on Day 7 (ie, 7 days after initial sensitization and 7 days prior to aerosol challenge), and continued daily through […]. On Day 17 of each experiment (17 days following the initial OVA challenge, and 3 days after the OVA aerosol challenge), all animals including controls were anesthetized, cannulated, and lavaged as previously described. The number of BAL eosinophils was determined as described above.

[4] = 4-day compound dosing, 10 mg/kg
[5] = 4-day compound dosing, 30 mg/kg
[6] = 4-day compound dosing, 100 mg/kg

Structure (SMILES): Cc1cc(I)ccc1Nc1cc(F)ccc1C(=O)O [Example 1, 4-Fluoro-2-(4-iodo-2-methylphenylamino)benzoic Acid]
- melting point: 224 to 229.5 °C

Structure (SMILES): Cc1cc(I)ccc1Nc1ccccc1C(=O)O [Example 19, 2-(4-Iodo-2-methyl-phenylamino)-benzoic acid]
- melting point: 218 to 223 °C

Structure (SMILES): COc1ccc(Nc2ccc(I)cc2)c(C(=O)O)c1 [Example 24, 2-(4-Iodo-phenylamino)-5-methoxy-benzoic acid]
- melting point: 208 to 211 °C

Structure (SMILES): Cc1cc(I)ccc1Nc1ccccc1-c1nnn[nH]1 [Example 208, (4-iodo-2-methyl-phenyl)-[2-(1H-tetrazol-5-yl)-phenyl]amine]
- melting point: 231 °C (dec.)

Structure (SMILES): COc1cccc(-c2cc(=O)c3ccccc3o2)c1N [PD 098059, 2-(2-amino-3-methoxyphenyl)-4-oxo-4H-[1]benzopyran, reference compound]
- IC50 [1]: 17400 nM

Structure (SMILES): Cc1cc(I)ccc1Nc1cc(F)ccc1C(=O)NO [PD 170611, 2-(2-Methyl-4-iodophenylamino)-N-hydroxy-4-fluorobenzamide]
- IC50 [1]: 1120 nM
- melting point: 61 to 75 °C

Structure (SMILES): Cc1cc(I)ccc1Nc1c(C(=O)NO)cc(Br)c(F)c1F [PD 171984, 2-(2-Methyl-4-iodophenylamino)-N-hydroxy-3,4-difluoro-5-bromobenzamide]
- IC50 [1]: 117 nM
- % Inhibition of BAL Eosinophils [2]: 99.82%
- % Inhibition of BAL Eosinophils [3, 4]: 38.4* %
- % Inhibition of BAL Eosinophils [3, 5]: 46.6* %
- % Inhibition of BAL Eosinophils [3, 6]: 58.4* %
- % Inhibition of BAL Eosinophils ([3]; 9-day compound dosing, 10 mg/kg, Experiment 1): −13.74%
- % Inhibition of BAL Eosinophils ([3]; 9-day compound dosing, 10 mg/kg, Experiment 2): 50.15* %
- % Inhibition of BAL Eosinophils ([3]; 9-day compound dosing, 30 mg/kg, Experiment 1): 80.64* %
- % Inhibition of BAL Eosinophils ([3]; 9-day compound dosing, 30 mg/kg, Experiment 2): 37.23* %
- % Inhibition of BAL Eosinophils ([3]; 9-day compound dosing, 100 mg/kg, Experiment 1): 88.40* %
- % Inhibition of BAL Eosinophils ([3]; 9-day compound dosing, 100 mg/kg, Experiment 2): 54.77* %
- % Inhibition of BAL Eosinophilia ([3]; Dose 100): 55.26* %
- inhibition of pulmonary eosinophilia (in words) ([3]; initial analysis, dosed orally for 4 days (Table 3)): demonstrated any inhibition of pulmonary eosinophilia
- activity against BAL eosinophils (in words) [3]: appears active
- inhibitory activity against BAL eosinophils (in words) [3]: statistically significant inhibitory activity
- melting point: 80 to 90 °C

Structure (SMILES): Cc1cc(I)ccc1Nc1c(C(=O)NOCC2CC2)cc(Br)c(F)c1F [PD 177168, 2-(2-Methyl-4-iodophenylamino)-N-cyclopropylmethoxy-3,4-difluoro-5-bromobenzamide]
- IC50 [1]: 1200 nM
- % Inhibition of BAL Eosinophilia ([3]; Dose 100): −23.38%

Structure (SMILES): O=C(NOCC1CC1)c1cc(Br)c(F)c(F)c1Nc1ccc(I)cc1Cl [PD 184161, 2-(2-Chloro-4-iodophenylamino)-N-cyclopropylmethoxy-3,4-difluoro-5-bromobenzamide]
- IC50 [1]: 1150 nM
- % Inhibition of BAL Eosinophilia ([3]; Dose 100): −32.53%

Structure (SMILES): O=C(NOCC1CC1)c1ccc(F)c(F)c1Nc1ccc(I)cc1Cl [PD 184352, 2-(2-Chloro-4-iodophenylamino)-N-cyclopropylmethoxy-3,4-difluorobenzamide]
- IC50 [1]: 1620 nM
- % Inhibition of BAL Eosinophils [2]: 99.46%
- % Inhibition of BAL Eosinophils [3, 4]: −22.7%
- % Inhibition of BAL Eosinophils [3, 5]: −153.8%
- % Inhibition of BAL Eosinophils [3, 6]: −8.2%
- % Inhibition of BAL Eosinophils ([3]; 9-day compound dosing, 10 mg/kg): −42.99%
- % Inhibition of BAL Eosinophils ([3]; 9-day compound dosing, 30 mg/kg): 1.83%
- % Inhibition of BAL Eosinophils ([3]; 9-day compound dosing, 100 mg/kg): 59.85%
- % Inhibition of BAL Eosinophilia ([3]; Dose 150): −5.41%
- activity against BAL eosinophils (in words) [3]: does not
- inhibitory activity against BAL eosinophils (in words) [3]: shown to inhibit the asthma-like response in mice

Structure (SMILES): O=C(NO)c1cc(Br)c(F)c(F)c1Nc1ccc(I)cc1Cl [PD 184386, 2-(2-Chloro-4-iodophenylamino)-N-hydroxy-3,4-difluoro-5-bromobenzamide]
- IC50 [1]: 23 nM
- % Inhibition of BAL Eosinophils [2]: 99.78%
- % Inhibition of BAL Eosinophilia ([3]; Dose 100): −33.24%
